# Values of other authors in patent publication US12274727B2 (Bazelet Health Systems, Inc., priority 2021, dated 2025).
# Tests used:
# [1] = after one single oral administration
# [2] = room temperature
# [3] = patch testing in Europe
# [4] = not given; remark: listed apart in the source
# [5] = not given; remark: listed apart in the source
# [6] = with piperine, chronic or single dose regimen
# [7] = not given; remark: listed apart in the source
compound,measurement,setting,value
C=C1CC/C=C(\C)CC[C@@H]2[C@@H]1CC2(C)C [β-caryophyllene],Tmax,[1],> 1 h
"CC(C)=CCC1C(=O)C(C(=O)CC(C)C)=C(O)C(O)(CC=C(C)C)C1=O (stereo not drawn) [Humulone, humulone]",time to degradation,[2],about 12 weeks
C=CC(C)(O)CCC=C(C)C (stereo not drawn) [Linalool],people found to be allergic to the oxidized form,[3],7%
C=C(C)[C@@H]1CCC(C)=C[C@H]1c1c(O)cc(CCCCC)cc1O [pharmaceutical CBD],patients reporting similar AEs,another trial,86%
same,patients with AEs reported,randomized controlled trial in treatment resistant epilepsy,93%
"C=C(C)[C@@H]1CCC(C)=C[C@H]1c1c(O)cc(CCCCC)cc1O [CBD, Cannabidiol]",sublingually absorbed,[4]; emulsified (micronized) CBD products,up to 35%
same,oral bioavailability,"[4]; oral, humans",approximately 6%
same,bioavailability from smoked product,[4]; smoked,around 31%
same,sublingual bioavailability,[4]; sublingual,13-19%
same,transdermal absorption,[4]; transdermal,about 10%
same,"formation of THC, yield","[5]; artificial gastric fluid without pepsin, first study",2.9%
same,conversion into THC (both 8 and 9 isomers),"[5]; simulated gastric fluid, another study",about 49%
same,increase in oral bioavailability compared to control group without piperine,[6],~2.5 fold
same,"degradation by light, average values",[7]; after 30 days,up to 15%
same,"maximum degradation, average values",[7]; stored at 37° C. for 30 days,up to 20%
